Measurements reported in US20230066946A1, “1,5-DIPHENYLPYRAZOLYL-3-OXYALKYL ACIDS AND 1-PHENYL-5-THIENYLPYRAZOLYL-3-OXYALKYL ACIDS AND THE USE THEREOF FOR CONTROL OF UNWANTED PLANT GROWTH” (Bayer Aktiengesellschaft, priority 2019, published 2023).

Assays:
[1] = test system: ALOMY; experiment: Pre-emergence herbicidal action against ALOMY; format: in vivo, Alopecurus myosuroides; settings: scored visually after about 3 weeks vs untreated controls, 100% = plants have died, 0% = like control plants
From the text: (§1) Seeds of mono- and dicotyledonous weed plants are placed in plastic pots in sandy loam soil (doubly sown with one species each of mono- or dicotyledonous weed plants per pot) and covered with soil. The compounds of the invention, formulated in the form of wettable powders (WP) or as emulsion concentrates (EC), are then applied onto the surface of the covering soil as aqueous suspension or emulsion with addition of 0.5% additive at a water application rate equivalent to 600 litres per hectare. After the treatment, the pots are placed in a greenhouse and kept under good growth conditions for the trial plants. After about 3 weeks, the effect of the preparations is scored visually in comparison with untreated controls as percentages. For example, 100% activity=the plants have died, 0% activity=like control plants. [table] Tables 4.1-4.15 below show the effects of selected compounds of the general formula (I) according to Tables 1 to 3 on various harmful plants at an application rate corresponding to 1280 or 320 g/ha, which have been obtained by the aforementioned experimental method.

[2] = test system: CYPES; experiment: Pre-emergence herbicidal action against CYPES; format: in vivo, Cyperus esculentus; settings: scored visually after about 3 weeks vs untreated controls, 100% = plants have died, 0% = like control plants
From the text: as §1

[3] = test system: ECHCG; experiment: Pre-emergence herbicidal action against ECHCG; format: in vivo, Echinochloa crus-galli; settings: scored visually after about 3 weeks vs untreated controls, 100% = plants have died, 0% = like control plants
Procedure, shortened: (§2)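 Scoring is visual, in percent relative to untreated pots, roughly 3 weeks after soil-surface application. Rates were 1280 or 320 g/ha, delivered as WP or EC preparations with 0.5% additive in 600 L/ha water onto freshly sown, covered sandy loam.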

[4] = test system: SETVI; experiment: Pre-emergence herbicidal action against SETVI; format: in vivo, Setaria viridis; settings: 1280 g/ha, scored visually after about 3 weeks vs untreated controls
Procedure, shortened: as §2

[5] = test system: AMARE; experiment: Pre-emergence herbicidal action against AMARE; format: in vivo, Amaranthus retroflexus; settings: scored visually after about 3 weeks vs untreated controls; for Pre-emergence action at 320 g/ha against AMARE in %: 100% = plants have died, 0% = like control plants; for Pre-emergence action against AMARE in %: 1280 g/ha
Procedure, shortened: as §2

[6] = test system: MATIN; experiment: Pre-emergence herbicidal action against MATIN; format: in vivo, Matricaria inodora; settings: 1280 g/ha, scored visually after about 3 weeks vs untreated controls
Procedure, shortened: as §2

[7] = test system: PHBPU; experiment: Pre-emergence herbicidal action against PHBPU; format: in vivo, Pharbitis purpurea; settings: 1280 g/ha, scored visually after about 3 weeks vs untreated controls
From the text: as §1

[8] = test system: POLCO; experiment: Pre-emergence herbicidal action against POLCO; format: in vivo, Polygonum convolvulus; settings: 320 g/ha, scored visually after about 3 weeks vs untreated controls
Procedure, shortened: as §2

[9] = test system: STEME; experiment: Pre-emergence herbicidal action against STEME; format: in vivo, Stellaria media; settings: scored visually after about 3 weeks vs untreated controls
Procedure, shortened: as §2

[10] = test system: VIOTR; experiment: Pre-emergence herbicidal action against VIOTR; format: in vivo, Viola tricolor; settings: 1280 g/ha, scored visually after about 3 weeks vs untreated controls
Procedure, shortened: as §2

[11] = test system: ALOMY; experiment: Post-emergence herbicidal action against ALOMY; format: in vivo, Alopecurus myosuroides; settings: 1280 g/ha, post-emergence at one-leaf stage, rated visually after about 3 weeks vs untreated controls
Procedure, shortened: (§3)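 Visual scoring, where 100% = dead and 0% = like untreated plants, was done about 3 weeks after treatment. Dose was 1280 or 320 g/ha, delivered as aqueous WP/EC suspension or emulsion with 0.5% additive at 600 L/ha. Pot-grown weeds in sandy loam were treated post-emergence at one leaf, 2-3 weeks post-sowing.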

[12] = test system: ECHCG; experiment: Post-emergence herbicidal action against ECHCG; format: in vivo, Echinochloa crus-galli; settings: 1280 g/ha, post-emergence at one-leaf stage, rated visually after about 3 weeks vs untreated controls
Procedure, shortened: as §3

[13] = test system: AMARE; experiment: Post-emergence herbicidal action against AMARE; format: in vivo, Amaranthus retroflexus; settings: visual rating about 3 weeks after treatment
Procedure, shortened: as §3

[14] = test system: MATIN; experiment: Post-emergence herbicidal action against MATIN; format: in vivo, Matricaria inodora; settings: visual rating about 3 weeks after treatment
Procedure, shortened: as §3

[15] = test system: PHBPU; experiment: Post-emergence herbicidal action against PHBPU; format: in vivo, Pharbitis purpurea; settings: 320 g/ha, visual rating about 3 weeks after treatment
Procedure, shortened: as §3

[16] = test system: STEME; experiment: Post-emergence herbicidal action against STEME; format: in vivo, Stellaria media; settings: visual rating about 3 weeks after treatment
Procedure, shortened: as §3

[17] = test system: harmful plants; experiment: Pre-emergence herbicidal action, summary of Tables 4.1-4.15; format: in vivo; settings: result in words
Procedure, shortened: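 Percent herbicidal action (100% = plants dead, 0% = like controls) was assessed visually about 3 weeks after treatment. Application rates of 1280 or 320 g/ha were applied to the covering soil of freshly sown sandy-loam pots, in 600 l/ha water with 0.5% additive, before emergence.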

[18] = test system: HORMU; experiment: Pre-emergence herbicidal action against HORMU; format: in vivo, Hordeum murinum; settings: 320 g/ha, scored visually after about 3 weeks vs untreated controls
From the text: as §1

[19] = test system: POLCO; experiment: Post-emergence herbicidal action against POLCO; format: in vivo, Polygonum convolvulus; settings: 320 g/ha, visual rating about 3 weeks after treatment
Procedure, shortened: as §3

[20] = test system: VIOTR; experiment: Post-emergence herbicidal action against VIOTR; format: in vivo, Viola tricolor; settings: 320 g/ha, visual rating about 3 weeks after treatment
Procedure, shortened: as §3

[21] = test system: HORMU; experiment: Post-emergence herbicidal action against HORMU; format: in vivo, Hordeum murinum; settings: 320 g/ha, visual rating about 3 weeks after treatment
Method: [table] Seeds of mono- and dicotyledonous weed plants are placed in plastic pots in sandy loam soil (twin sowing with one species each of mono- or dicotyledonous weed plants per pot), covered with soil and cultivated in a greenhouse under controlled growth conditions. 2 to 3 weeks after sowing, the test plants are treated at the one-leaf stage. The compounds of the invention, formulated in the form of wettable powders (WP) or as emulsion concentrates (EC), are applied to the green parts of the plants as aqueous suspension or emulsion with addition of 0.5% additive at a water application rate equivalent to 600 litres per hectare. After the test plants have been kept in the greenhouse under optimum growth conditions for about 3 weeks, the activity of the preparations is rated visually in comparison to untreated controls. For example, 100% activity=the plants have died, 0% activity=like control plants. Tables 5.1-5.16 below show the effects of selected compounds of the general formula (I) according to Tables 1 to 3 on various harmful plants at an application rate corresponding to 1280 or 320 g/ha, which have been obtained by the aforementioned experimental method.

[22] = test system: SETVI; experiment: Post-emergence herbicidal action against SETVI; format: in vivo, Setaria viridis; settings: 1280 g/ha, post-emergence at one-leaf stage, rated visually after about 3 weeks vs untreated controls
Procedure, shortened: as §3

CCOC(=O)COc1nn(-c2ccccc2)c(-c2ccccc2)c1Br [I-070]
Pre-emergence action at 1280 g/ha against ALOMY in % [1]: 90% | Pre-emergence action at 1280 g/ha against CYPES in % [2]: 80% | Pre-emergence action at 1280 g/ha against ECHCG in % [3]: 90% | Pre-emergence action against SETVI in % [4]: 90% | Pre-emergence action at 320 g/ha against AMARE in % [5]: 100% | Pre-emergence action against AMARE in % [5]: 100% | Pre-emergence action against MATIN in % [6]: 90% | Pre-emergence action against PHBPU in % [7]: 90% | Pre-emergence action against POLCO in % [8]: 80% | Pre-emergence action against STEME in % ([9]; 320 g/ha): 80% | Pre-emergence action against STEME in % ([9]; 1280 g/ha): 90% | Pre-emergence action against VIOTR in % [10]: 90% | Post-emergence action against ALOMY in % [11]: 80% | Post-emergence action against ECHCG in % [12]: 80% | Post-emergence action against AMARE in % ([13]; 1280 g/ha): 80% | Post-emergence action against MATIN in % ([14]; 1280 g/ha): 80% | Post-emergence action against PHBPU in % [15]: 90% | Post-emergence action against STEME in % ([16]; 1280 g/ha): 90% | herbicidal efficacy against harmful plants in the case of pre-emergence treatment [17]: good herbicidal efficacy

COC(=O)C(C)Oc1nn(-c2ccccc2)c(-c2ccc(F)cc2)c1C#N (centres unmarked) [I-064]
Pre-emergence action at 320 g/ha against AMARE in % [5]: 100% | Pre-emergence action against POLCO in % [8]: 100% | Pre-emergence action against STEME in % ([9]; 320 g/ha): 90% | Pre-emergence action against HORMU in % [18]: 90% | Post-emergence action against MATIN in % ([14]; 320 g/ha): 80% | Post-emergence action against PHBPU in % [15]: 80% | Post-emergence action against POLCO in % [19]: 80% | Post-emergence action against STEME in % ([16]; 320 g/ha): 90% | Post-emergence action against VIOTR in % [20]: 100% | Post-emergence action against HORMU in % [21]: 90%

COC(=O)C(C)Oc1nn(-c2ccccc2F)c(-c2ccccc2)c1C#N (centres unmarked) [I-061]
Pre-emergence action at 1280 g/ha against ALOMY in % [1]: 90% | Pre-emergence action at 1280 g/ha against CYPES in % [2]: 90% | Pre-emergence action at 1280 g/ha against ECHCG in % [3]: 90% | Pre-emergence action against SETVI in % [4]: 100% | Pre-emergence action at 320 g/ha against AMARE in % [5]: 90% | Pre-emergence action against AMARE in % [5]: 100% | Pre-emergence action against MATIN in % [6]: 90% | Pre-emergence action against PHBPU in % [7]: 90% | Pre-emergence action against STEME in % ([9]; 320 g/ha): 90% | Pre-emergence action against STEME in % ([9]; 1280 g/ha): 100% | Pre-emergence action against VIOTR in % [10]: 90% | Post-emergence action against ALOMY in % [11]: 90% | Post-emergence action against ECHCG in % [12]: 80% | Post-emergence action against SETVI in % [22]: 80% | Post-emergence action against AMARE in % ([13]; 320 g/ha): 80% | Post-emergence action against AMARE in % ([13]; 1280 g/ha): 80% | Post-emergence action against PHBPU in % [15]: 80% | Post-emergence action against POLCO in % [19]: 80% | Post-emergence action against STEME in % ([16]; 1280 g/ha): 80% | Post-emergence action against VIOTR in % [20]: 80% | herbicidal efficacy against harmful plants in the case of pre-emergence treatment [17]: good herbicidal efficacy
